Laboratory results as given in patent US8304454B2, “Antimicrobial cellulose sponge and method of making” (3M Innovative Properties Company, priority 2007, dated 2012).

What was measured:
[1] = Water activity of humectant solutions (AquaLab CX-2); type: physicochemical
Description: (§1) Water activity (aw) is a measure of the amount of free water available to a microorganism to support growth. Water activity expresses the active portion of the water content as opposed to the total moisture content, which includes “bound water.” The measurements were conducted using the AquaLab CX-2 by Decagon Devices, Inc. by utilizing the chilled mirror/dew point hygrometric methodology for determining water activity. The cellulose sponge was cut into a disk having a 1.5″ inch diameter and 1/16 inch thick.
A commercially available magnesium chloride hexahydrate (MgCl2.6H2O) (EMD Chemical Company, Gibbstown, N.J.), sodium chloride (NaCl) (Fisher Scientific Company, Fair Lawn, N.J.), potassium chloride (KCl) (EMD Chemical Company, Gibbstown, N.J.), and glycerol (EMD Chemical Company, Gibbstown, N.J.) was mixed to obtain a desired concentration. The solution was measured for water activity using the AquaLab CX-2 by Decagon Devices, Inc. The water activity for those solutions is presented in Table 7.

[2] = Water activity of humectants in cellulose sponges (AquaLab CX-2); type: physicochemical
Description: Water Activity (aw) in the Cellulose Sponges
as §1
A prepared cellulose sponge was soaked for 20 minutes in one of the MgCl2 or NaCl humectant solutions from Example 3. After soaking, the cellulose sponge was squeezed out between squeeze rolls and then immediately placed into airtight plastic bags. The samples were tested for water activity within 24 hours.

What does the source list for `[Cl-].[K+]` [KCl, potassium chloride]?
Water Activity of humectant solution ([1]; solution concentration 8%): 0.952; Water Activity of humectant solution ([1]; solution concentration 10%): 0.950; Water Activity of humectant solution ([1]; solution concentration 12%): 0.938; Water Activity of humectant solution ([1]; solution concentration 14%): 0.928; Water Activity of humectant solution ([1]; solution concentration 16%): 0.915; Water Activity of humectant solution ([1]; solution concentration 18%): 0.904; Water Activity of humectant solution ([1]; solution concentration 20%): 0.891; Water Activity of humectant solution ([1]; solution concentration 22%): 0.875; Water Activity of humectant solution ([1]; solution concentration 24%): 0.859

Which results are given for `OCC(O)CO` [Glycerol, glycerol]?
Water Activity of humectant solution ([1]; solution concentration 8%): 0.975; Water Activity of humectant solution ([1]; solution concentration 10%): 0.971; Water Activity of humectant solution ([1]; solution concentration 12%): 0.966; Water Activity of humectant solution ([1]; solution concentration 14%): 0.962; Water Activity of humectant solution ([1]; solution concentration 16%): 0.955; Water Activity of humectant solution ([1]; solution concentration 18%): 0.950; Water Activity of humectant solution ([1]; solution concentration 20%): 0.944; Water Activity of humectant solution ([1]; solution concentration 22%): 0.939; Water Activity of humectant solution ([1]; solution concentration 24%): 0.934; Water Activity of humectant solution ([1]; solution concentration 50%): 0.811

Which “Water Activity of humectant solution” value ([1]; solution concentration 8%) does the source give for `O=C([O-])[O-].[K+].[K+]` [Formulation K2CO3] here?
The value was 0.973.

And the “Water Activity of humectant solution” value ([1]; solution concentration 10%)?
Its value is 0.960.

And the “Water Activity of humectant solution” value ([1]; solution concentration 12%)?
The value was 0.957.

What about the “Water Activity of humectant solution” value ([1]; solution concentration 16%) of the same molecule?
The value was 0.943.

What about the “Water Activity of humectant solution” value ([1]; solution concentration 20%) of the same molecule?
Its value is 0.925.

For `[Cl-].[Na+]` [NaCl, sodium chloride], which “Water Activity of humectant in cellulose sponge” value ([2]; 10 wt. % of input solution) is on record?
Its value is 0.926.

And the “Water Activity of humectant in cellulose sponge” value ([2]; 12 wt. % of input solution)?
Its value is 0.921.

What about the “Water Activity of humectant in cellulose sponge” value ([2]; 14 wt. % of input solution) of the same molecule?
Its value is 0.900.

And the “Water Activity of humectant in cellulose sponge” value ([2]; 16 wt. % of input solution)?
The value was 0.881.

What about the “Water Activity of humectant solution” value ([1]; solution concentration 8%) of the same molecule?
Its value is 0.949.

What about the “Water Activity of humectant solution” value ([1]; solution concentration 10%) of the same molecule?
Its value is 0.936.

And the “Water Activity of humectant solution” value ([1]; solution concentration 12%)?
Its value is 0.919.

And the “Water Activity of humectant solution” value ([1]; solution concentration 16%)?
The value was 0.887.

What about the “Water Activity of humectant solution” value ([1]; solution concentration 20%) of the same molecule?
Its value is 0.842.

Which “Water Activity of humectant in cellulose sponge” value ([2]; 10 wt. % of input solution) does the source give for `O.O.O.O.O.O.[Cl-].[Cl-].[Mg+2]` [MgCl2, magnesium chloride hexahydrate (MgCl2.6H2O)] here?
The value was 0.913.

What about the “Water Activity of humectant in cellulose sponge” value ([2]; 12 wt. % of input solution) of the same molecule?
Its value is 0.896.

And the “Water Activity of humectant in cellulose sponge” value ([2]; 14 wt. % of input solution)?
The value was 0.890.

And the “Water Activity of humectant solution” value ([1]; solution concentration 8%)?
Its value is 0.944.

What about the “Water Activity of humectant solution” value ([1]; solution concentration 10%) of the same molecule?
The value was 0.926.

And the “Water Activity of humectant solution” value ([1]; solution concentration 12%)?
Its value is 0.904.

And the “Water Activity of humectant solution” value ([1]; solution concentration 14%)?
The value was 0.876.

And the “Water Activity of humectant solution” value ([1]; solution concentration 16%)?
Its value is 0.847.

What about the “Water Activity of humectant solution” value ([1]; solution concentration 18%) of the same molecule?
Its value is 0.841.

And the “Water Activity of humectant solution” value ([1]; solution concentration 20%)?
Its value is 0.768.
